From the NIST ThermoML archive (doi:10.1021/acs.jced.8b01097)
± gives the expanded uncertainty stated by the source.

Legend:
[1] = 85 kPa, Liquid; for viscosity: Concentric cylinders viscometry; for mass density: Vibrating tube method
[2] = xn = mol fraction of the nth substance listed; details: 85 kPa, Liquid; for viscosity: Concentric cylinders viscometry; for mass density: Vibrating tube method

Row | SMILES | viscosity ([1]; 293.15 K) [mPa·s] | mass density ([1]; 293.15 K) [kg/m3] | viscosity ([1]; 298.15 K) [mPa·s] | mass density ([1]; 298.15 K) [kg/m3] | viscosity ([1]; 303.15 K) [mPa·s] | mass density ([1]; 303.15 K) [kg/m3] | viscosity ([1]; 308.15 K) [mPa·s] | mass density ([1]; 308.15 K) [kg/m3] | viscosity ([1]; 313.15 K) [mPa·s] | mass density ([1]; 313.15 K) [kg/m3] | viscosity ([1]; 318.15 K) [mPa·s] | mass density ([1]; 318.15 K) [kg/m3] | viscosity ([1]; 323.15 K) [mPa·s] | mass density ([1]; 323.15 K) [kg/m3] | further results
1 | CCC(C)O (stereo not drawn) [butan-2-ol] | 3.743 ± 0.23 | 806.2 ± 1 | 3.101 ± 0.19 | 802 ± 1 | 2.579 ± 0.16 | 797.9 ± 1 | 2.162 ± 0.13 | 793.6 ± 1 | 1.828 ± 0.11 | 789.2 ± 1 | 1.559 ± 0.094 | 784.7 ± 1 | 1.318 ± 0.08 | 780.2 ± 1 | –
2 | CC(C)O [propan-2-ol] | 2.429 ± 0.15 | 784.9 ± 1 | 2.095 ± 0.13 | 780.7 ± 1 | 1.808 ± 0.11 | 776.4 ± 1 | 1.567 ± 0.094 | 772.1 ± 1 | 1.366 ± 0.082 | 767.6 ± 1 | 1.195 ± 0.072 | 763.1 ± 1 | 1.052 ± 0.064 | 758.5 ± 1 | –
3 | CC(C)O [propan-2-ol] + CCC(C)O | – | – | – | – | – | – | – | – | – | – | – | – | – | – | viscosity ([2]; 293.15 K, x2 = 0): 2.429 ± 0.15 mPa·s; mass density ([2]; 293.15 K, x2 = 0): 784.9 ± 1 kg/m3; viscosity ([2]; 298.15 K, x2 = 0): 2.095 ± 0.13 mPa·s; mass density ([2]; 298.15 K, x2 = 0): 780.7 ± 1 kg/m3; viscosity ([2]; 303.15 K, x2 = 0): 1.808 ± 0.11 mPa·s; mass density ([2]; 303.15 K, x2 = 0): 776.4 ± 1 kg/m3; viscosity ([2]; 308.15 K, x2 = 0): 1.567 ± 0.094 mPa·s; mass density ([2]; 308.15 K, x2 = 0): 772.1 ± 1 kg/m3; viscosity ([2]; 313.15 K, x2 = 0): 1.366 ± 0.082 mPa·s; mass density ([2]; 313.15 K, x2 = 0): 767.6 ± 1 kg/m3; viscosity ([2]; 318.15 K, x2 = 0): 1.195 ± 0.072 mPa·s; mass density ([2]; 318.15 K, x2 = 0): 763.1 ± 1 kg/m3; viscosity ([2]; 323.15 K, x2 = 0): 1.052 ± 0.064 mPa·s; mass density ([2]; 323.15 K, x2 = 0): 758.5 ± 1 kg/m3
4 | CCC(C)O (stereo not drawn) [butan-2-ol] + NCCCO | – | – | – | – | – | – | – | – | – | – | – | – | – | – | viscosity ([2]; 293.15 K, x1 = 1): 3.743 ± 0.23 mPa·s; mass density ([2]; 293.15 K, x1 = 1): 806.2 ± 1 kg/m3; viscosity ([2]; 298.15 K, x1 = 1): 3.101 ± 0.19 mPa·s; mass density ([2]; 298.15 K, x1 = 1): 802 ± 1 kg/m3; viscosity ([2]; 303.15 K, x1 = 1): 2.579 ± 0.16 mPa·s; mass density ([2]; 303.15 K, x1 = 1): 797.9 ± 1 kg/m3; viscosity ([2]; 308.15 K, x1 = 1): 2.162 ± 0.13 mPa·s; mass density ([2]; 308.15 K, x1 = 1): 793.6 ± 1 kg/m3; viscosity ([2]; 313.15 K, x1 = 1): 1.828 ± 0.11 mPa·s; mass density ([2]; 313.15 K, x1 = 1): 789.2 ± 1 kg/m3; viscosity ([2]; 318.15 K, x1 = 1): 1.559 ± 0.094 mPa·s; mass density ([2]; 318.15 K, x1 = 1): 784.7 ± 1 kg/m3; viscosity ([2]; 323.15 K, x1 = 1): 1.318 ± 0.08 mPa·s; mass density ([2]; 323.15 K, x1 = 1): 780.2 ± 1 kg/m3
5 | NCCCO [3-amino-1-propanol] | 37.33 ± 2.3 | 987.8 ± 1.3 | 28.59 ± 1.7 | 984.3 ± 1.2 | 22.31 ± 1.4 | 980.3 ± 1.2 | 17.67 ± 1.1 | 976.2 ± 1.2 | 14.21 ± 0.86 | 972.3 ± 1.2 | 11.58 ± 0.7 | 968.5 ± 1.2 | 9.546 ± 0.58 | 964.9 ± 1.2 | –
6 | CCCO [propan-1-ol] | 2.215 ± 0.13 | 803.5 ± 1 | 1.97 ± 0.12 | 799.4 ± 1 | 1.752 ± 0.11 | 795.4 ± 1 | 1.563 ± 0.094 | 791.3 ± 1 | 1.399 ± 0.085 | 787.2 ± 1 | 1.255 ± 0.076 | 783.1 ± 1 | 1.129 ± 0.068 | 778.9 ± 1 | –
7 | CCCO [propan-1-ol] + CCC(C)O | – | – | – | – | – | – | – | – | – | – | – | – | – | – | viscosity ([2]; 293.15 K, x2 = 0): 2.215 ± 0.13 mPa·s; mass density ([2]; 293.15 K, x2 = 0): 803.5 ± 1 kg/m3; viscosity ([2]; 298.15 K, x2 = 0): 1.97 ± 0.12 mPa·s; mass density ([2]; 298.15 K, x2 = 0): 799.4 ± 1 kg/m3; viscosity ([2]; 303.15 K, x2 = 0): 1.752 ± 0.11 mPa·s; mass density ([2]; 303.15 K, x2 = 0): 795.4 ± 1 kg/m3; viscosity ([2]; 308.15 K, x2 = 0): 1.563 ± 0.094 mPa·s; mass density ([2]; 308.15 K, x2 = 0): 791.3 ± 1 kg/m3; viscosity ([2]; 313.15 K, x2 = 0): 1.399 ± 0.085 mPa·s; mass density ([2]; 313.15 K, x2 = 0): 787.2 ± 1 kg/m3; viscosity ([2]; 318.15 K, x2 = 0): 1.255 ± 0.076 mPa·s; mass density ([2]; 318.15 K, x2 = 0): 783.1 ± 1 kg/m3; viscosity ([2]; 323.15 K, x2 = 0): 1.129 ± 0.068 mPa·s; mass density ([2]; 323.15 K, x2 = 0): 778.9 ± 1 kg/m3
